Results on one molecule are retold here after patent publication US20180185408A1, “ANTIFUNGAL NYLON-3 POLYMERS AND COMBINATION THERAPY USING THEM TO TREAT FUNGAL INFECTIONS” (priority 2016, published 2018).

The experiment deals with Cryptococcus neoformans. Nature of the experiment: MIC by broth microdilution (CLSI M27-A3). The experiment is classed as cell-based. The conditions noted are these: Cryptococcus neoformans, Resistance FLU.

The molecule `OC(Cn1cncn1)(Cn1cncn1)c1ccc(F)cc1F` [FLC, fluconazole] yielded an MIC50 (Cryptococcus neoformans CN2) of more than 64 µg/mL and an MIC50 (Cryptococcus neoformans CN3) of more than 64 µg/mL.
